Measurements taken from PMC3454376, “Salidroside Improves Behavioral and Histological Outcomes and Reduces Apoptosis via PI3K/Akt Signaling after Experimental Traumatic Brain Injury” (PLoS ONE, 2012).

System: mice subjected to controlled cortical impact injury
Experiment: Brain water content (brain edema) after CCI
Type: in vivo
Conditions: day 1, vehicle 84.5±1.2%
Method: All animal procedures were approved by the Animal Research Committee at Cheng Hsin General Hospital (Animal permit number […] 101-08), and all procedures complied with the Guide for the Care and Use of Laboratory Animals published by the US National Institutes of Health (NIH Publication No. 85-23, revised 1996). Animals were housed under a 12-h light/dark cycle and at constant temperature (21-25°C) and humidity (45-50%). They were allowed free access to pellet chow and water. TBI in mice was induced by a CCI injury model as previously described. Briefly, 8-week-old male C57BL/6 mice (weighing 22-25 g) were anesthetized through the use of intraperitoneal injection of sodium pentobarbital (65 mg/kg; Rhone Merieux, Harlow, UK) and placed in a stereotaxic frame. A 5 mm craniotomy was performed over the right parietal cortex, centered on the coronal suture and 0.1 mm lateral to the sagittal suture, and injury to dura was avoided. […] Body temperature was monitored throughout the surgery by a rectal probe; temperature was maintained at 37.0±0.5°C using a heated pad. […] To determine the optimal dose of salidroside, a pilot study was performed using 2 different doses (20 and 50 mg/kg) administered 10 min after injury, and neurological deficits and tissue damage were evaluated as the main outcomes. […]

SMILES: OC[C@H]1O[C@@H](OCCc2ccc(O)cc2)[C@H](O)[C@@H](O)[C@@H]1O [SALD, salidroside]
- brain water content, ipsilateral hemisphere (20 mg/kg ip 10 min after CCI, sham 80.7±0.6%, P<0.05): 81.0±0.6%
- brain water content, ipsilateral hemisphere (50 mg/kg ip 10 min after CCI, not significant): 82.2±1.1%
